Columns and labels:
Assay type in all cases: cell-based, human
[1] = test system: ovarian cancer cell line A2780; assay: SRB assay in A2780; conditions: A2780, 72 hours
Experimental: (§1) Sulfor hod am ine B p rotei n st ai ning (SRB) assay
(§2) Cell pr oliferat ion was eva lua ted by sul for hod amine B pr ot ein st aini ng (SRB) assa y10-12.
(§3) Briefly, cel ls were se ede d int o 96-well pl ates, cul tur ed overni ght , and trea ted with correspond ing com poun ds for 72 h. Cells were the n fixe d with 10% trichl or oa cetic aci d and st ained with sul for hoda mine B (Sigm a). Sul for hoda mine B in the cells was di sso lved in 10 mmol/L Tris-HCl and was measured at 515 nm usi ng a multiw ell spect ropho tometer (VERSA max, Mol ecul ar Devi ces, Sunnyva le, CA). The inhi bi tion rat e on cell pr olif eratio n was cal culated for each well as (A515contr ol cells-A 515tr eated cells)/A515contr ol cells×100 % (A515:
(§4) OD va lue at 515 nm ). The averag e IC50 va lue s were de termine d by Logit method from at leas t t hr eei nde pe nde nt test s.

[2] = test system: NAD level of HepG2 cells; assay: Cellular NAD level, spectrophotometric enzymatic cycling assay
From the text: F0 was the average d fluo rescen ce of si x backgr ound control s, repres ent ing zero activ ity from a si mul ated enz ym e reaction wit h on ly NAMP T but no NAM and com pound; F100 % was the average d fluorescen ce of si x ref erence cont rols, repr ese nt ing 100% activ ity from int act enz ym e reaction w ithou t com pound p ert ur bation.
Compounds with Activ ity% less tha n 40% were consi dered as inhi bi tor s and subj ect ed to a secondary screen inhi bition valida tion, in whi ch anot her backgr oun d cont rol (FC0), a si mul ated enz ym e reaction with NAMP Tand com pound but no NAM, was int roduced to elimina te the di rec t and /or ind irect inf lue nc e fro m compou nd. At thi s st age , the Activ ity% was cal culated accor ding t o e qua tion ( 2) :
In the screeni ng, the si gna l-to- noi se (S/N) rat io was cal cul ated usi ng the equa tion: (Mean signal -Mean backgr oun d) / SD backgr oun d4. Coe fficient s of vari atio n (CV) were the ratio of SD to mean. The Z ’f act or w as de term ine d by e qua tion (3) 5:
Z' −= (3)1−3(S Dhi ghsigna l+SDlowsigna l)
Mean hi gh signa l Meanlow signa l
Determ inat ion of IC50 for NAMPT inhi bitor s […]
vari ous con cent ration s were adde d int o 96-well pl ate. The pl ate was inc uba ted at 37 °C for 5 min after addition of 16.5 μl react ion buf fer cont aini ng N AMP T. The enz ym e reactions were ini tiated by 4.5 μl NAM (1.1 1 μM) follow ing NMN measurem ent as de scri bed above . […]
Cellul ar level of NAD was measured by spe ctrophot om etric enz ym atic cyc ling assa y, as de scri bed pr evi ousl y6-8. […]
Cell vi ability was de termine d by ou r previ ous method9 usi ng the Cell Counting Kit-8 (CCK -8, Dojindo, Ja pa n). […] Th e absor banc e at 450 nm (A450) was de tected by a pl ate reade r. […]
Briefly, cel ls were se ede d int o 96-well pl ates, cul tur ed overni ght , and trea ted with correspond ing com poun ds for 72 h. […] Sul for hoda mine B in the cells was di sso lved in 10 mmol/L Tris-HCl and was measured at 515 nm usi ng a multiw ell spect ropho tometer […]

[3] = test system: HepG2 cells; assay: Cell counting kit-8 (CCK-8) cell viability assay in HepG2
Experimental: Cellc ount ing k it-8 (CCK-8) assa y
Cell vi ability was de termine d by ou r previ ous method9 usi ng the Cell Counting Kit-8 (CCK -8, Dojindo, Ja pa n). In hu man he pa tocellu lar carcinom a cell line HepG 2, cells were seede d in 96-well plate and starve d for ove r 12 h with se rum-free DMEM at 60~ 70% conf lue nc y, the n trea ted wit h com pounds or ve hicle for 24 h to 72 h accor ding to expe riment requi rement s. […]
10 μl CCK-8 sol ution was adde d to the cul ture medium and inc ub ated at 37 °C for 1 h. Th e absor banc e at 450 nm (A450) was de tected by a pl ate reade r. Each e xperi ment w as carr ied out i n t riplic ate i n thr ee r eplic ate w ells.

[4] = test system: osteosarcoma cell line U2OS; assay: SRB assay in U2OS; conditions: 72 hours
Experimental: as §1, §2, §3, §4

## O=S(=O)(c1ccc(NC(=S)NCc2cccnc2)cc1)N1CCCCC1 [MS0]
[1]
  growth inhibition (SRB, in words): potent growth inhibition
[2]; HepG2, 1 μM, 24 hours
  decrease of cellular NAD level: ~ 70%
[2]; Homo sapiens, HepG2, 24 hours treatment, read-out: IC50 for reducing NAD level
  IC50: 93.7 nM
[3]; HepG2, 10 μM, treatment for ≥36 hours
  cell viability (CCK-8), time course: markedly inhibited
[3]; HepG2, 24 hours, up to 10 μM
  cell viability (CCK-8): almost had no changes
[3]; Homo sapiens, HepG2, 48 h, read-out: CCK-8 assay in HepG2: IC50
  IC50: 703 ± 95.4 nM
[4]
  growth inhibition (SRB, in words): potent growth inhibition

— publication PMC4603696, “Discovery and characterization of novel small-molecule inhibitors targeting nicotinamide phosphoribosyltransferase” (Scientific Reports, 2015)
